The results in this text go back to PMC3195688, “Glucose-6-Phosphate Dehydrogenase Regulation in Anoxia Tolerance of the Freshwater Crayfish Orconectes virilis” (Enzyme Research, 2011).

The subject of this assay is T1, Glucose-6-phosphate dehydrogenase (G6PDH).
T1 construct: gene G6PD; native enzyme in crude hepatopancreas extract of aerobic control animals, not purified; mixture of low- and high-phosphate forms
The experiment in a line: NADPH production at […] nm, microplate reader. The class given is biochemical, Faxonius virilis. The conditions noted are these: untreated extract of aerobic control animals, 50 mM imidazole, pH 7.0, 22 °C, read-out: Control K m.

Like-named read-outs stand apart in the source and are kept apart here.

Turning to `O=P(O)(O)OC[C@H]1OC(O)[C@H](O)[C@@H](O)[C@@H]1O` (some centres unmarked) [G6P], the Km (NADP+ constant) was 130 ± 16 µM. Consider `NC(=O)c1ccc[n+]([C@@H]2O[C@H](COP(=O)(O)OP(=O)(O)OC[C@H]3O[C@@H](n4cnc5c(N)ncnc54)[C@H](OP(=O)(O)O)[C@@H]3O)[C@@H](O)[C@H]2O)c1` [NADP^+], for which the Km (G6P constant) worked out at 150 ± 8 µM.
